Measurements reported in PMC11609934, “Exploration and characterization of the antimalarial activity of cyclopropyl carboxamides that target the mitochondrial protein, cytochrome b” (European Journal of Medicinal Chemistry, 2024).
Read-outs that look alike come from different tables or passages of the source.

Key:
[1] = test system: Pf 3D7 3-oxadiazole quinolone resistant strain with a V259L mutation in the Qo site of cyt b; set-up: method as in Nguyen, Dans et al. [8]; conditions: known drug controls; ref Nguyen, Dans et al. [8]; read-out: Pf cyt b mutant strains EC50 3D7 cyt b(V259L); cited from earlier work
[2] = test system: P. falciparum 3D7 parasites; assay: P. falciparum 3D7 asexual stage LDH assay (72 h); assay type: cell-based, Plasmodium falciparum; conditions: Plasmodium falciparum, 3D7 / DSM 265, parent 3D7 for resistant populations; LDH assay, 3 experiments (SYBR-green for DSM265); read-out: Pf 3D7 EC50 (SD)
Outline: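 Asexual P. falciparum 3D7 parasites were grown for 72 h over a 10-point, 3-fold series starting at 1 μM in 0.1% DMSO, with 100 nM chloroquine as negative growth control. After freeze-thaw, parasite LDH was read at 650 nm, and EC50 came from a variable-slope sigmoidal fit.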

[3] = test system: Pf Dd2 strain with an I22L mutation in the Qi site cyt b; set-up: method as in Nguyen, Dans et al. [8]; conditions: known drug controls; ref Nguyen, Dans et al. [8]; read-out: Pf cyt b mutant strains EC50 Dd2 cyt b(I22L); cited from earlier work
[4] = test system: W499-resistant populations; assay: microbe, parasite or virus in culture; assay type: cell-based, Plasmodium falciparum; conditions: for EC50: Plasmodium falciparum
Text: (§1) To confirm if W466 (1) and W499 (2) may have the same molecular target, W466 (1) and W499 (2) were each evaluated for cross resistance against their respective resistant populations from the pulsed forward genetic study (Fig. 2).

[5] = test system: Pf Dd2 parental line; conditions: known drug controls; ref Nguyen, Dans et al. [8]; cited from earlier work
[6] = test system: W466-resistant populations; assay: 72 h growth assay against W466-resistant populations; assay type: cell-based, Plasmodium falciparum; conditions: Plasmodium falciparum
Text: To determine the mechanism of action of the cyclopropyl carboxamide series, a forward genetic resistance study was undertaken on the two hit compounds W466 (1) and W499 (2).
as §1, with “The structures of W466 (1) and W499 (2) are slightly different although they appear to belong to the same structural class. To” for “To”

In the case of `COc1cc2[nH]c(C)c(-c3ccc(Oc4ccc(OC(F)(F)F)cc4)cc3)c(=O)c2cc1Cl` [ELQ300], the EC50 [1] is given as 12 nM, the EC50 [2] is given as 13 nM and the EC50 [3] is given as 176 nM. The “fold shift in EC50 against W499-resistant populations compared to wildtype 3D7” value [4] was 2 fold, the EC50 ([4]; DSM265, read-out: W499-resistant populations EC50 (SD) #2) was 53 nM and the EC50 ([4]; DSM265, read-out: W499-resistant populations EC50 (SD) #3) was 45 nM. The EC50 [5] was 21 nM, the EC50 ([6]; read-out: W466-resistant populations EC50 (SD) #1) was 36 nM and the EC50 ([6]; read-out: W466-resistant populations EC50 (SD) #2) was 18 nM. The EC50 ([6]; read-out: W466-resistant populations EC50 (SD) #3) was 20 nM.
